The values that follow come from US20240239842A1 (CHUGAI SEIYAKU KABUSHIKI KAISHA, priority 2021, published 2024).

Experiment [1] addresses wild type KRAS(WT) (Homo sapiens, UniProt P01116). In words: Surface plasmon resonance (SPR) binding to wild type KRAS. To be noted: SPR Biacore 8K+, Single Cycle Kinetics, 30° C., 10 μM GDP, 1:1 binding model; read-out: Dissociation Constant KD (nM) for Wild Type KRAS.
The target in experiment [2] is mutant KRAS (G12D) (Homo sapiens, UniProt P01116, G12D). In words: Surface plasmon resonance (SPR) binding to mutant KRAS (G12D). The following applies: SPR Biacore 8K+, Single Cycle Kinetics, 30° C., 10 μM GDP, 1:1 binding model; read-out: Dissociation Constant KD (nM) for Mutant KRAS (G12D).

Starred links: 1 amine or outer side, 2 acyl side, 3 side chain; linkers in the order of their positions; H or OH if unused. Positions of bridges follow the written chain, without caps; N, C: chain ends. Non-standard residues stand in square brackets, D forms with d. Residues, ends and D or L forms follow the SMILES beside them. *: point of attachment. hPhe(3-Cl-4-CF3) = N[C@@H](CCc1ccc(C(F)(F)F)c(Cl)c1)C(=O)O; X1 = CN([C@@H](CC1CCC(F)(F)CC1)C(=O)[*:2])[*:1]; NMePhe(4-Me) = CN[C@@H](Cc1ccc(C)cc1)C(=O)O; X4 = C#Cc1cccc(C[C@H](N[*:1])C(=O)[*:2])c1; X5 = O=C([C@H](Cc1cccc(F)c1F)N[*:1])[*:2]; Phe(3-I) = N[C@@H](Cc1cccc(I)c1)C(=O)O; X2 = CC(C)=CC[C@H](N[*:1])C(=O)[*:2]; NMeY = CN[C@@H](Cc1ccc(O)cc1)C(=O)O; NMeCha = CN[C@@H](CC1CCCCC1)C(=O)O; X6 = O=C(CN(CCN1CCNCC1)[*:1])[*:2]; X3 = C[C@H](CN(C)[*:1])C(=O)[*:2]; NMeChg = CN[C@H](C(=O)O)C1CCCCC1; NMeF = CN[C@@H](Cc1ccccc1)C(=O)O; Gly(cBu) = N[C@H](C(=O)O)C1CCC1; NMeD = CN[C@@H](CC(=O)O)C(=O)O; NMeL = CN[C@@H](CC(C)C)C(=O)O; NMehSer = CN[C@@H](CCO)C(=O)O; NMeV = CN[C@H](C(=O)O)C(C)C; d(β3hA) = C[C@@H](N)CC(=O)O; NMeS = CN[C@@H](CO)C(=O)O; Pip = O=C(O)[C@@H]1CCCCN1; NMeA = CN[C@@H](C)C(=O)O; NMeAib = CNC(C)(C)C(=O)O; Nle = CCCC[C@H](N)C(=O)O; Piperidide = C1CCN(*)CC1; Ac5c = NC1(C(=O)O)CCCC1; Aze = O=C(O)[C@@H]1CCN1; Sar = CNCC(=O)O

As for `CC(C)=CC[C@@H]1NC(=O)[C@H](Cc2cccc(I)c2)NC(=O)CN(C)C(=O)[C@H](CC2CCC(F)(F)CC2)N(C)C(=O)[C@@H]2CCN2C(=O)[C@@H]2CCCCN2C(=O)[C@H](C2CCC2)NC(=O)[C@H](CC(C)C)N(C)C(=O)C[C@@H](C(=O)N2CCCCC2)N(C)C(=O)[C@H](CC(C)C)NC(=O)[C@H](Cc2ccccc2)N(C)C1=O` [Compound 2, (1S,6S,9S,15S,18S,21S,24S,27S,31S,34S)-21-benzyl-34-cyclobutyl-9-[(4,4-difluorocyclohexyl)methyl]-15-[(3-iodophenyl)methyl]-24,31-diisobutyl-8,11,20,26,30-pentamethyl-18-(3-methylbut-2-enyl)-27-(piperidine-1-carbonyl)-3,8,11,14,17,20,23,26,30,33,36-undecazatricyclo[34.4.0.03,6]tetracontane-2,7,10,13,16,19,22,25,29,32,35-undecanone] ([NMeL][Gly(cBu)][Pip][Aze][X1][Sar][Phe(3-I)][X2][NMeF]L[NMeD]-Piperidide; lactam N-11), the Kd is 44 nM in experiment [1] and 4.4 nM in experiment [2].
For `CCCC[C@@H]1NC(=O)[C@H](Cc2cccc(I)c2)NC(=O)CN(C)C(=O)[C@H](Cc2ccc(C)cc2)N(C)C(=O)CN(C)C(=O)CN(C)C(=O)[C@H]([C@@H](C)CC)NC(=O)[C@H](CCOC)N(C)C(=O)C[C@@H](C(=O)N2CCCCC2)N(C)C(=O)[C@H](CC(C)C)NC(=O)[C@H](COC)N(C)C1=O` [Compound 3, (3S,6S,9S,12S,18S,27S,30S,34S)-9-butyl-12-[(3-iodophenyl)methyl]-3-isobutyl-30-(2-methoxyethyl)-6-(methoxymethyl)-1,7,16,19,22,25,31-heptamethyl-27-[(1S)-1-methylpropyl]-34-(piperidine-1-carbonyl)-18-(p-tolylmethyl)-1,4,7,10,13,16,19,22,25,28,31-undecazacyclotetratriacontane-2,5,8,11,14,17,20,23,26,29,32-undecanone] ([NMehSer](Me)I[Sar][Sar][NMePhe(4-Me)][Sar][Phe(3-I)][Nle][NMeS](Me)L[NMeD]-Piperidide; lactam N-11) the same measures were 43 nM and 2.9 nM.
For `C#Cc1cccc(C[C@@H]2NC(=O)CN(C)C(=O)[C@H](CC3CCCCC3)N(C)C(=O)CN(C)C(=O)CN(C)C(=O)[C@H]([C@@H](C)CC)NC(=O)[C@H](C)CN(C)C(=O)C[C@@H](C(=O)N3CCCCC3)N(C)C(=O)[C@H](CC(C)C)NC(=O)C(C)(C)N(C)C(=O)[C@H](Cc3ccc(OC)cc3)NC2=O)c1` [Compound 4, (3S,9S,12S,18S,27S,30R,35S)-18-(cyclohexylmethyl)-12-[(3-ethynylphenyl)methyl]-3-isobutyl-9-[(4-methoxyphenyl)methyl]-1,6,6,7,16,19,22,25,30,32-decamethyl-27-[(1S)-1-methylpropyl]-35-(piperidine-1-carbonyl)-1,4,7,10,13,16,19,22,25,28,32-undecazacyclopentatriacontane-2,5,8,11,14,17,20,23,26,29,33-undecaone] ([X3]I[Sar][Sar][NMeCha][Sar][X4]Y(Me)[NMeAib]L[NMeD]-Piperidide; lactam N-11), the equilibrium dissociation constant (Kd) was 23 nM in experiment [1] and 1.5 nM in experiment [2].
For `CCCC[C@@H]1NC(=O)[C@H](Cc2cccc(F)c2F)NC(=O)CN(C)C(=O)[C@H](Cc2ccc(OC)cc2)N(C)C(=O)[C@@H]2CCN2C(=O)[C@@H]2CCCCN2C(=O)[C@H](C2CCC2)NC(=O)[C@H](CC(C)C)N(C)C(=O)C[C@@H](C(=O)N2CCCCC2)N(C)C(=O)[C@H](CC(C)C)NC(=O)C(C)(C)N(C)C1=O` [Compound 5, (1S,6S,9S,15S,18S,24S,27S,31S,34S)-18-butyl-34-cyclobutyl-15-[(2,3-difluorophenyl)methyl]-24,31-diisobutyl-9-[(4-methoxyphenyl)methyl]-8,11,20,21,21,26,30-heptamethyl-27-(piperidine-1-carbonyl)-3,8,11,14,17,20,23,26,30,33,36-undecazatricyclo[34.4.0.03,6]tetracontane-2,7,10,13,16,19,22,25,29,32,35-undecaone] ([NMeL][Gly(cBu)][Pip][Aze][NMeY](Me)[Sar][X5][Nle][NMeAib]L[NMeD]-Piperidide; lactam N-11) the same measures were 19 nM and 3.6 nM.
For `CC[C@H](C)[C@@H]1NC(=O)[C@H](CC(C)C)N(C)C(=O)C[C@@H](C)NC(=O)[C@H](C(C)C)N(C)C(=O)C2(CCCC2)NC(=O)[C@@H]2CCCN2C(=O)[C@H](CCc2ccc(C(F)(F)F)c(Cl)c2)NC(=O)CN(C)C(=O)[C@H](CC2CCCCC2)N(C)C(=O)[C@@H]2CCN2C(=O)[C@H](C)N(C)C1=O` [Compound 6, (3S,9S,12S,17S,20S,23S,27R,30S,36S)-3-[2-[3-chloro-4-(trifluoromethyl)phenyl]ethyl]-9-(cyclohexylmethyl)-23-isobutyl-30-isopropyl-7,10,17,18,24,27,31-heptamethyl-20-[(1S)-1-methylpropyl]spiro[1,4,7,10,15,18,21,24,28,31,34-undecazatricyclo[34.3.0.012,15]nonatriacontane-33,1′-cyclopentane]-2,5,8,11,16,19,22,25,29,32,35-undecaone] (cyclo([Ac5c][NMeV][d(β3hA)][NMeL]I[NMeA][Aze][NMeCha][Sar][hPhe(3-Cl-4-CF3)]P)), the Kd in experiment [1] was 16 nM; in experiment [2], 21 nM.
On the same counts, the results for `CC[C@H](C)[C@@H]1NC(=O)[C@H](CC(C)C)N(C)C(=O)C[C@@H](C(=O)N2CCCCC2)N(C)C(=O)[C@H](C2CCCCC2)N(C)C(=O)C2(CCCC2)NC(=O)CN(CCN2CCNCC2)C(=O)[C@H](CCc2ccc(C(F)(F)F)c(Cl)c2)NC(=O)CN(C)C(=O)[C@H](CC2CCCCC2)N(C)C(=O)CN(C)C(=O)CN(C)C1=O` [Compound 7, (11S,17S,26S,29S,33S,36S)-11-[2-[3-chloro-4-(trifluoromethyl)phenyl]ethyl]-36-cyclohexyl-17-(cyclohexylmethyl)-29-isobutyl-15,18,21,24,30,34,37-heptamethyl-26-[(1 S)-1-methylpropyl]-9-(2-piperazine-1-ylethyl)-33-(piperidine-1-carbonyl)-6,9,12,15,18,21,24,27,30,34,37-undecazaspiro[4.33]octatriacontane-7,10,13,16,19,22,25,28,31,35,38-undecaone, reference compound] ([NMeL]I[Sar][Sar][NMeCha][Sar][hPhe(3-Cl-4-CF3)][X6][Ac5c][NMeChg][NMeD]-Piperidide; lactam N-11) are 0.94 nM and 0.18 nM.
